Data: US4119719A, “Piperazine compounds” (Parcor, priority 1975, dated 1978)

Assays:
[1] = test system: stretching movements induced by acetic acid; assay: Analgesic activity: acetic acid stretching movements (method of Koster, Anderson and De Beer); assay type: in vivo; settings: mice, 50 mg/kg oral thirty minutes before acetic acid; reduction in stretching movements in next thirty minutes
Method: The intraperitoneal injection of a dilute solution of acetic acid causes, in mice, repeated characteristic stretching movements under the effect of the pain. The oral administration of a dosage of 50 mg/kg of the test derivative, thirty minutes before the injection of acetic acid, reduces the number of movements in the next thirty minutes. In this way, the average number of stretching movements and the percentage analgesia obtained, corresponding to the percentage reduction in the number of stretching movements, compared with the controls, are determined.

[2] = test system: dyslipaemia; assay: Hypocholesterolaemic activity: rabbits kept on a hypercholesterolaemic diet, biological tests of dyslipaemia; assay type: in vivo; parameters: total cholesterol (T) / esterified cholesterol (E) / free cholesterol (L) / Burstein test with dextrane (B) / serum lipids (LS): unit not given here; settings: 10 mg/kg daily oral
Method: (§1) (b) This study was carried out on rabbits kept on a hypercholesterolaemic diet. The rabbits are divided into batches of 40 animals; the control batch (A) receives no treatment, whereas the treated batches are given the medicines according to the invention. Thus, derivative no. 1 is administered to the animals in batch B, derivative no. 5 to those in batch C and derivative no. 7 to those in batch D, by oral route, daily, in dosage of 10 mg/kg. On the first day of the experiments and then every 15 days, for a period of 75 days, biological tests are carried out on all the animals, whereby the various elements which indicate dyslipaemia are determined: total cholesterol (T), esterified cholesterol (E), free cholesterol (L), esterification ratio (E/T), Kunkel phenol test (K1), Kunkel phenol test (K2), Burstein test with dextrane (B) and serum lipids (LS).
(§2) The results, representing the average values determined with each batch, are assembled in the following Tables: […]

[3] = test system: livers and aortas; assay: Rabbits kept on a hypercholesterolaemic diet: macroscopic examination of livers and aortas; assay type: in vivo; settings: 10 mg/kg daily oral, end of experiment
Method: as §1
At the end of the experiment, all the animals are killed and autopsies are performed on them; macroscopic examinations of their livers and aortas are then carried out, and the fatty infiltrations of the liver are marked, in size, from 0 to 3 and the aortic atheromatous lesions are marked, in intensity, from 0 to 4.
as §2

[4] = LD50 /24 hours, intravenous route in mice (method of Miller and Tainter); settings: mouse, in vivo, read-out: LD50 /24 hours/kg of body weight
Method: 1, 53 mg for derivative no. 2, 89 mg for derivative no. 3, 57 mg for derivative no. 4, 41 mg for derivative no. 5, 62 mg for derivative no. 6, 66 mg for derivative no. 7, 74 mg for derivative no. 8 and 100 mg for derivative no. 9.

[5] = test system: cholesterol level in the plasma; assay: Hypocholesterolaemic activity: test using propyl thiouracil; assay type: in vivo; settings: rats, 10 mg/kg orally, 11th day
Excerpt: (a) Test using propyl thiouracil ([…] and Coll., J. Pharmacol. Exper. Therap., 1963, 142, 132-136). […] On the 11th day of the experiment, blood samples are taken and the free cholesterol and total cholesterol are estimated.

## Cl.Cl.Clc1ccc(N2CCN(CCCN3CCCC3)CC2)cc1 [Derivative no. 7, 1-(p-chlorophenyl)-4-(3-pyrrolidino-propyl)-piperazine dihydrochloride]
[1]
  average percentage of analgesia: 69%
[2]; 1st Day
  Burstein test with dextrane (B): 10.6
  Kunkel phenol test (K1): 8.1
  Kunkel phenol test (K2): 13.2
  esterification ratio (E/T): 0.51
  esterified cholesterol (E): 0.27
  free cholesterol (L): 0.25
  serum lipids (LS): 1.98
  total cholesterol (T): 0.52
[2]; 30th Day
  Burstein test with dextrane (B): 21.2
  Kunkel phenol test (K1): 18.5
  Kunkel phenol test (K2): 25.2
  esterification ratio (E/T): 0.63
  esterified cholesterol (E): 0.96
  free cholesterol (L): 0.55
  serum lipids (LS): 2.88
  total cholesterol (T): 1.51
[2]; 75th Day
  Burstein test with dextrane (B): 35.6
  Kunkel phenol test (K1): 32.9
  Kunkel phenol test (K2): 50.0
  esterification ratio (E/T): 0.62
  esterified cholesterol (E): 1.83
  free cholesterol (L): 1.12
  serum lipids (LS): 3.97
  total cholesterol (T): 2.95
[3]; marked in intensity from 0 to 4
  aortic atheromatous lesions: 1.4
[3]; marked in size from 0 to 3
  fatty infiltrations of the liver: 1.2
[4]
  LD50 at 24 h: 66 mg/kg
[5]
  Free cholesterol: 0.12 g/L
  Total cholesterol: 0.50 g/L
